These are literature values, as cited in patent US20200224165A1, “METHODS AND COMPOSITIONS FOR REJUVENATION” (priority 2016, published 2020).

Molecules are shown by their SMILES.

For this data set the following is noted: without irradiation and chemotherapy.

Regarding `c1cc(CN2CCCNCCNCCCNCC2)ccc1CN1CCCNCCNCCCNCC1` [AMD3100], the “effectiveness as conditioning for HSCT” value is “not to be sufficiently effective”.
